Results on one compound are retold here after US10265294B2, “Compositions and methods for treating epithelial cancer” (YALE UNIVERSITY, priority 2016, dated 2019).

Data set [1] deals with ERK. Briefly: Phosphokinase array / Western blot for phosphorylated ERK in OCSCs. The class given is cell-based, human. As to conditions: compared to controls; from 2 h up to 24 h post-treatment. As to the method:
(§1) SDS-PAGE and Western blots were performed using 20 μg of total protein lysate as described in Kamsteeg, et al., 2003, Oncogene 22:2611-2620. Antibodies used were: mouse anti-phospho ERK (Santa Cruz Biotechnology, Inc., Dallas, Tex.); rabbit anti-phospho c-Jun, rabbit anti c-Jun, rabbit anti-ERK, rabbit anti-cleaved caspase 3 all from Cell Signaling Technology, Danvers, Mass.; and mouse anti-GAPDH (Sigma-Aldrich).
In order to elucidate the early pathways responsible for the sustained cytotoxic effect observed with TRX-E-002-1, a phosphokinase array was performed. The phosphokinase array detected relative phosphorylation levels of 43 different kinases involved in major signal transduction pathways.
The western blot results also validated the decrease in p-ERK in cells treated with TRX-E-002-1. […] The effect on the phosphorylation status of the kinases (upregulation of p-cJun and downregulation of p-ERK) was observed as early as 2 h post-treatment and maintained up to 24 h (FIG. 4A). The phosphorylation levels of c-Jun and ERK correlate with the differential ability of the two doses of TRX-E-002-1 to induce a sustained cytotoxic effect. […] This correlates with the ability of this dose of TRX-E-002-1 to maintain the upregulation of p-cJun and downregulation of p-ERK even when the compound is removed (FIG. 4B). […]
(In general: Immunoblotting shows a protein as a band on a membrane.)

Data set [2] deals with cleaved/active caspase-3. Briefly: Western blot for cleaved caspase-3 in OCSC transfected with scramble or c-Jun siRNA. The class given is cell-based, human. As to conditions: 2.45 μM for 2 hours then recovery. As to the method:
as §1
To determine the requirement for c-Jun activation in TRX-E-002-1-induced apoptosis, siRNA was used to knock-down c-Jun in chemoresistant OCSC. […] This upregulation was maintained, even when treatment was removed and cells were allowed to recover (FIG. 5C).

For data set [3], the system named is OCSCs (CD44+/MyD88+ ovarian cancer stem cells). Briefly: OCSC growth, morphology, RFP+ cell count and Celltox cell death (kinetic live cell imaging). The class given is cell-based, human. As to the method: (§2) CD44+/MyD88+ ovarian cancer stem cell clones (OCSC1 and OCSC2) and CD44−/MyD88− ovarian cancer cells (OCC1 and OCC2) were isolated from either tumor tissue or ascites obtained from patients diagnosed with stage III/IV serous ovarian cancer and propagated (Alvero, et al., 2009, Cell Cycle 8:158-166; Chefetz, et al., 2013, Cell Cycle 12:511-521). The epithelial nature of the isolated cells was determined by immunostaining for Ck18. Purity of the cultures based on CD44 expression by flow cytometry and chemoresistance were routinely tested. Stable expression of nuclear-restricted red fluorescent (in OCSCs) or green fluorescent proteins (in OCCs) was performed by transduction using NUCLIGHT® Red or Green Lentivirus Reagent (Essen Bioscience, Ann Arbor, Mich.). Spheroids were formed from OCSCs by culturing in ultra-low attachment multi-well plates (Corning, Inc., Corning, N.Y.).
(§3) Effect of each compound on cell morphology, growth, and viability was assessed using a kinetic live cell imaging system (Incucyte, Essen Bioscience). Proliferation was calculated as previously described (Alvero, et al., 2011, Mol. Cancer Ther. 10:1385-1393) using metrics from either confluence or fluorescent count from nuclear-restricted RFP or GFP. Cell death was quantified; similarly CELLTOX® Green Cytotoxicity Assay (Promega, Madison, Wis.). IC50 was calculated as described using GraphPad Prism (GraphPad Software Inc., LaJolla, Calif.).
In vitro, conventional chemotherapeutic drugs had negligible effect on OCSC growth even in the μM range (FIG. 1B).
TRX-E-002 exists as a racemic mixture comprised of two enantiomers, enantiomer A (TRX-E-002-1) and enantiomer B (TRX-E-002-2). Thus, the enantiomers were separated and assessed separately. To distinguish between an analog's cytostatic or cytotoxic activity, OCSC clones that are stably transfected with nuclear-restricted RFP were used, which allows an accurate quantification of the number of cells and can be multiplexed with CELLTOX® assay to concomitantly measure the number of dead cells.

The subject of data set [4] is OCSC2 (chemoresistant CD44+/MyD88+ ovarian cancer stem cell clone). Briefly: Real-time measurement of cell number/cell death and IC50, OCSC2 clone. The class given is cell-based, human. As to conditions: OCSC2, 24 hours (FIG. 1G). As to the method: as §2, §3
A panel of four different SBP subfamilies with cytotoxic activity against chemoresistant ovarian cancer stem cells were tested for efficacy in inducing ovarian cancer stem cell death. […] The efficacy of each analog was determined based on its IC50.
TRX-E-002 exists as a racemic mixture comprised of two enantiomers, enantiomer A (TRX-E-002-1) and enantiomer B (TRX-E-002-2). Thus, the enantiomers were separated and assessed separately. […]

For data set [5] the following is noted: mouse, in vivo. The source says: The Yale University Institutional Animal Care and Use Committee approved all in vivo studies described. Intra-peritoneal tumors were established in athymic nude mice using 4×10^6 mCherry+OCSC1-F2 ovarian cancer cells (Craveiro, et al., 2013, Cancer Med. 2:751-762). Injection of cancer cells is designated as day 0 and treatment commenced between day 3-5. Establishment of i.p. tumors was confirmed by live imaging (In-Vivo FX PRO, Bruker Corp., Billerica, Mass.) prior to treatment. TRX-E-002-1 was prepared in 20% Captisol or Dexsolve and administered daily at 50 mg/kg or 100 mg/kg. Paclitaxel was given at 12 mg/kg q3d and Cisplatin at 5 mg/kg weekly. All treatments were given i.p. Tumor growth was monitored q3d by live imaging and response to treatment was assessed using ROI area.
To determine activity against primary disease as well as to determine the maximum tolerated dose (MTD), a dose response study was performed. […] Animals however recovered from the distension upon cessation of treatment. […] Thus, the MTD was established at daily 100 mg/kg i.p. and this dose was employed for the succeeding studies employing combination treatment.

Data set [6] relates to OCC2 (CD44-/MyD88- ovarian cancer cells). The data set can be described thus: IC50 against chemosensitive ovarian cancer cells OCC2. The class given is cell-based, human. As to conditions: read-out: IC50 (percentage of viable cells). As to the method:
CD44+/MyD88+ ovarian cancer stem cell clones (OCSC1 and OCSC2) and CD44−/MyD88− ovarian cancer cells (OCC1 and OCC2) were isolated from either tumor tissue or ascites obtained from patients diagnosed with stage III/IV serous ovarian cancer and propagated (Alvero, et al., 2009, Cell Cycle 8:158-166; Chefetz, et al., 2013, Cell Cycle 12:511-521). The epithelial nature of the isolated cells was determined by immunostaining for Ck18. Purity of the cultures based on CD44 expression by flow cytometry and chemoresistance were routinely tested. […]
as §3
Once the efficacy of TRX-E-002-1 against chemoresistant OCSC was established, its activity against two clones of chemosensitive ovarian cancer cells (OCC1 and OCC2) was determined.

One may read the IC50 as the concentration at which inhibition is half-maximal. As to `COc1cc(C2COc3c(ccc(O)c3C)C2c2ccc(O)cc2)cc(OC)c1O` (single isomer, unassigned) [TRX-E-002-1], the “levels of phosphorylated-ERK (p-ERK)” value in data set [1] was “lower levels”. Moreover, the “cleaved/active caspase-3” value in data set [2] (c-Jun knocked-down by siRNA) is listed as “not detectable”; in data set [2] (scramble siRNA), “appearance of cleaved/active caspase-3”. Moreover, the “number of nuclear RFP+ cells” value in data set [3] (RFP OCSC clones, TRX-E-002-1 beginning at the 0.245 μM dose, TRX-E-002-2 except for the very high dose of 10 μM) is on record as “significant decrease”. The “number of Celltox-positive cells” value in data set [3] (beginning at the 0.245 μM dose) is “concomitant increase”. Moreover, the half-maximal inhibitory concentration (IC50) in data set [4] amounted to 47 nM; in data set [6] it was 27 nM. The “toxicity at high concentrations in animal studies” value in data set [5] is “evidence of some potential toxicity”. In data set [5] (ip), the “maximum tolerated dose (MTD)” value is 100 mg/kg.
